Test results: patent US8940771B2, “Organic compounds” (Novartis AG, priority 2007, dated 2015)

target: PI3Kα (p85iSH2(461-568)-p110α(21-1068)-His, BV1075) (Homo sapiens (Human), UniProt P42336); assay: PI3K KinaseGlo assay, PI3Kalpha; type: biochemical; conditions: KinaseGlo, 1 μM ATP, 10 nM enzyme, 30 mins
Sequence (P42336 other isoform, or with tags, fused parts or gaps): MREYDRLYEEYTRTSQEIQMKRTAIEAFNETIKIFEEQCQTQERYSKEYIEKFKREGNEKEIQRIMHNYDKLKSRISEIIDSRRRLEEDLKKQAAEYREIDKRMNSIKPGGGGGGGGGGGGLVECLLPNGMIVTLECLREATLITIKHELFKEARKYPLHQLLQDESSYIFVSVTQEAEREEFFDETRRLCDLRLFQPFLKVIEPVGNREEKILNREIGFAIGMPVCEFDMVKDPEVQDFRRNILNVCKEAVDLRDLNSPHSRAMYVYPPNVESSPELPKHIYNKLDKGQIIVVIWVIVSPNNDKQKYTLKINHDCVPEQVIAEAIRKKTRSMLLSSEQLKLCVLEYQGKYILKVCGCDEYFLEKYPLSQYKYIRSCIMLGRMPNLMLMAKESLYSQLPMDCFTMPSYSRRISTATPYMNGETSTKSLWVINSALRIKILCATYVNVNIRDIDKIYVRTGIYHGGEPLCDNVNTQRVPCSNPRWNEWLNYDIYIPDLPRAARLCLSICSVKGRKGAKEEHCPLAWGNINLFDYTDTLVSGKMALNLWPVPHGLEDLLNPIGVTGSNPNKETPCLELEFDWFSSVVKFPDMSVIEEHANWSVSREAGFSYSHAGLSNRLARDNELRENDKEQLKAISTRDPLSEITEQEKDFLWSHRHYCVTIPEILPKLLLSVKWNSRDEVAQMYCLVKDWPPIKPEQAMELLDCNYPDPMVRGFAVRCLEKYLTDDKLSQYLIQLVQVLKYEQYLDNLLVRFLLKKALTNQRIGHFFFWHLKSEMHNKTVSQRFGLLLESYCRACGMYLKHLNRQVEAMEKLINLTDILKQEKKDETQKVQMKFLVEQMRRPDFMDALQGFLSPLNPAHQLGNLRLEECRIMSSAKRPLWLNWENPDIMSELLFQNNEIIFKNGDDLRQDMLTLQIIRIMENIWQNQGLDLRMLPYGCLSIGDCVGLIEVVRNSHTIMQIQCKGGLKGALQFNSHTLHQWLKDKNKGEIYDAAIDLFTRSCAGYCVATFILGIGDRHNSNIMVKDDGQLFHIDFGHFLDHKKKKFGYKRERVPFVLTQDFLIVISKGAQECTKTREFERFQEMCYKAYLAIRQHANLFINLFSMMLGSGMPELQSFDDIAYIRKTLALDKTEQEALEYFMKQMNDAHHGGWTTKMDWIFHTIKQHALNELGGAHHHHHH

Compared with `CCCc1nccn1-c1cc(-c2sc(NC(=O)N3CC(O)CC3C(N)=O)nc2C)ccc1S(C)(=O)=O` [Example 1, (2S,4R)-4-hydroxy-pyrrolidine-1,2-dicarboxylic acid 2-amide 1-({5-[4-methanesulfonyl-3-(2-propyl-imidazol-1-yl)-phenyl]-4-methyl-thiazol-2-yl}-amide)triflouroacetate], `Cc1nc(NC(=O)N2C[C@@H](O)C[C@H]2C(N)=O)sc1-c1ccnc(C(C)(C)C)c1` [Example 7, (2S,4S)-4-hydroxy-pyrrolidine-1,2-dicarboxylic acid 2-amide 1-{[5-(2-tert-butyl-pyridin-4-yl)-4-methyl-thiazol-2-yl]-amide}] is 11-fold lower in IC50: 170 nM for the first, 15 nM for the second.

Going from `Cc1nc(NC(=O)N2C[C@H](O)C[C@H]2C(N)=O)sc1-c1ccnc(C(C)(C)C)n1` [Example 3, (2S,4R)-4-hydroxy-pyrrolidine-1,2-dicarboxylic acid 2-amide 1-{[5-(2-tert-butyl-pyrimidin-4-yl)-4-methyl-thiazol-2-yl]-amide}triflouroacetate] to `Cc1nc(NC(=O)N2C[C@H]3C[C@H]3[C@H]2C(N)=O)sc1-c1ccnc(C(C)(C)C)n1` [Example 11, (1R,2S,5S)-3-aza-bicyclo[3.1.0]hexane-2,3-dicarboxylic acid 2-amide 3-{[5-(2-tert-butyl-pyrimidin-4-yl)-4-methyl-thiazol-2-yl]-amide}], the IC50 rises from 13 nM to 48 nM (3.7-fold).

Going from `Cc1nc(NC(=O)N2CCC[C@@]2(C)C(N)=O)sc1-c1ccnc(C2(C)CC2)c1` [Example 40, S)-2-Methyl-pyrrolidine-1,2-dicarboxylic acid 2-amide 1-({4-methyl-5-[2-(1-methyl-cyclopropyl)-pyridin-4-yl]-thiazol-2-yl}-amide] to `Cc1nc(NC(=O)N2CCC[C@@]2(C)C(N)=O)sc1-c1ccnc(C2(C#N)CC2)c1` [Example 49, S)-2-Methyl-pyrrolidine-1,2-dicarboxylic acid 2-amide 1-({5-[2-(1-cyano-cyclopropyl)-pyridin-4-yl]-4-methyl-thiazol-2-yl}-amide], the IC50 falls from 37 nM to 17 nM (2.2-fold).

First: Cc1nc(NC(=O)N2CCC[C@@]2(C)C(N)=O)sc1-c1ccnc(C2(C(F)(F)F)CC2)c1 [Example 46, S)-2-Methyl-pyrrolidine-1,2-dicarboxylic acid 2-amide 1-({4-methyl-5-[2-(1-trifluoromethyl-cyclopropyl)-pyridin-4-yl]-thiazol-2-yl}-amide]
Second: Cc1nc(NC(=O)N2CCC[C@@]2(C)C(N)=O)sc1-c1ccnc(C2(C(F)(F)F)CCC2)c1 [Example 48, S)-2-Methyl-pyrrolidine-1,2-dicarboxylic acid 2-amide 1-({4-methyl-5-[2-(1-trifluoromethyl-cyclobutyl)-pyridin-4-yl]-thiazol-2-yl}-amide]
The IC50 of the first is 1.8-fold higher: 9 nM for the first, 5 nM for the second.

First: Cc1nc(NC(=O)N2CCC[C@@]2(C)C(N)=O)sc1-c1ccnc(C(C)(C)C(F)(F)F)c1 [Example 47, S)-2-Methyl-pyrrolidine-1,2-dicarboxylic acid 2-amide 1-({4-methyl-5-[2-(2,2,2-trifluoro-1,1-dimethyl-ethyl)-pyridin-4-yl]-thiazol-2-yl}-amide]
Second: CSc1nccc(-c2sc(NC(=O)N3CCC[C@@]3(C)C(N)=O)nc2C)n1 [Example 74, (S)-2-Methyl-pyrrolidine-1,2-dicarboxylic acid 2-amide 1-{[4-methyl-5-(2-methylsulphanyl-pyrimidin-4-yl)-thiazol-2-yl]-amide}]
The IC50 of the first is 3.2-fold lower: 40 nM for the first, 130 nM for the second.

`COc1ccc(C2(c3cc(-c4sc(NC(=O)N5CCC[C@@]5(C)C(N)=O)nc4C)ccn3)CC2)cc1` [Example 54, (S)-2-Methyl-pyrrolidine-1,2-dicarboxylic acid 2-amide 1-[(5-{2-[1-(4-methoxy-phenyl)-cyclopropyl]-pyridin-4-yl}-4-methyl-thiazol-2-yl)-amide]] and `CCN(Cc1ccccc1)c1nccc(-c2sc(NC(=O)N3CCC[C@@]3(C)C(N)=O)nc2C)n1` [Example 98] are within 1.5-fold of each other in IC50: 190 nM for the first, 140 nM for the second.

`Cc1nc(NC(=O)N2CC(F)(F)C[C@H]2C(N)=O)sc1-c1ccnc(C2(C)CC2)c1` [Example 59, S)-4,4-Difluoro-pyrrolidine-1,2-dicarboxylic acid 2-amide 1-({4-methyl-5-[2-(1-methyl-cyclopropyl)-pyridin-4-yl]-thiazol-2-yl}-amide] and `Cc1nc(NC(=O)N2CCC[C@@]2(C)C(N)=O)sc1-c1ccnc(CC2CC2)n1` [Example 110, (S)-2-Methyl-pyrrolidine-1,2-dicarboxylic acid 2-amide 1-{[5-(2-cyclopropylmethyl-pyrimidin-4-yl)-4-methyl-thiazol-2-yl]-amide}] are the same in IC50: 71 nM for the first, 71 nM for the second.

`Cc1nc(NC(=O)N2C[C@H](O)C[C@@]2(C)C(N)=O)sc1-c1ccnc(C(C)(C)C)n1` [Example 65, (2S,4R)-4-Hydroxy-2-methyl-pyrrolidine-1,2-dicarboxylic acid 2-amide 1-{[5-(2-tert-butyl-pyrimidin-4-yl)-4-methyl-thiazol-2-yl]-amide}] and `Cc1nc(NC(=O)N2CCC[C@@]2(CN(C)C)C(N)=O)sc1-c1ccnc(C(C)(C)C)n1` [Example 107, (R)-2-Dimethylaminomethyl-pyrrolidine-1,2-dicarboxylic acid 2-amide 1-{[5-(2-tert-butyl-pyrimidin-4-yl)-4-methyl-thiazol-2-yl]-amide}] are within 1.5-fold of each other in IC50: 31 nM for the first, 44 nM for the second.

Going from `Cc1nc(NC(=O)N2CCC[C@@]2(C)C(N)=O)sc1-c1ccnc(N(C)CCN(C)C)n1` [Example 80, (S)-2-Methyl-pyrrolidine-1,2-dicarboxylic acid 2-amide 1-[(5-{2-[(2-dimethylamino-ethyl)-methyl-amino]-pyrimidin-4-yl}-4-methyl-thiazol-2-yl)-amide]] to `CCN(CCOC)c1nccc(-c2sc(NC(=O)N3CCC[C@@]3(C)C(N)=O)nc2C)n1` [Example 101, (S)-2-Methyl-pyrrolidine-1,2-dicarboxylic acid 2-amide 1-[(5-{2-[ethyl-(2-methoxy-ethyl)-amino]-pyrimidin-4-yl}-4-methyl-thiazol-2-yl)-amide]], the IC50 falls from 250 nM to 99 nM (2.5-fold). The second is the more potent here.

Compared with `CCN(CC)c1nccc(-c2sc(NC(=O)N3CC[C@@H]4C[C@@]43C(N)=O)nc2C)n1` [Example 88, (1S,5R)-2-Aza-bicyclo[3.1.0]hexane-1,2-dicarboxylic acid 1-amide 2-{[5-(2-diethylamino-pyrimidin-4-yl)-4-methyl-thiazol-2-yl]-amide}], `Cc1nc(NC(=O)N2CCC[C@@]2(C)C(N)=O)sc1-c1ccnc(-n2ccnc2C)n1` [Example 102, S)-2-Methyl-pyrrolidine-1,2-dicarboxylic acid 2-amide 1-({4-methyl-5-[2-(2-methyl-imidazol-1-yl)-pyrimidin-4-yl]-thiazol-2-yl}-amide] is 2.8-fold higher in IC50: 76 nM for the first, 210 nM for the second.

`[2H]C([2H])([2H])C(c1nccc(-c2sc(NC(=O)N3CCC[C@@]3(C)C(N)=O)nc2C)n1)(C([2H])([2H])[2H])C([2H])([2H])[2H]` [Example 111] showed an IC50 of 52 nM.

same assay, conditions: KinaseGlo, 1 μM ATP; alpha vs. delta selectivity table

In the case of `Cc1nc(NC(=O)N2CC[C@H](O)[C@H]2C(N)=O)sc1-c1ccnc(C(C)(C)C)n1.O=C(O)C(F)(F)F` [Example 9, (2S,3S)-3-hydroxy-pyrrolidine-1,2-dicarboxylic acid 2-amide 1-{[5-(2-tert-butyl-pyrimidin-4-yl)-4-methyl-thiazol-2-yl]-amide}triflouroacetate], the IC50 is reported as 12 nM.

same assay, conditions: ratio of PI3Kdelta IC50 to PI3Kalpha IC50

For `Cc1nc(NC(=O)N2CC[C@H](O)[C@H]2C(N)=O)sc1-c1ccnc(C(C)(C)C)n1.O=C(O)C(F)(F)F` [Example 9, (2S,3S)-3-hydroxy-pyrrolidine-1,2-dicarboxylic acid 2-amide 1-{[5-(2-tert-butyl-pyrimidin-4-yl)-4-methyl-thiazol-2-yl]-amide}triflouroacetate], the “Selectivity PI3Kalpha vs. PI3Kdelta” value was 38-fold.
